Assay in all cases: inhibition of tumour cell growth, NCI panel, 48 h
In experiment [1] the test system is U251 CNS.
Experiment [2] deals with NCI-H522 lung.
Experiment [3] relates to SF-268 CNS.
Experiment [4] relates to NCI-H460 lung.
For experiment [5], the system named is A549 NSCLC.
Experiment [6] relates to SF-539 CNS.
The test system of experiment [7] is M14 melanoma.
In experiment [8] the test system is COLO 205 colon.
Experiment [9] relates to DU-145 prostate.
In experiment [10] the test system is MDA-MB-435.

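Tested at 5 concentrations; 48 h exposure; 96-well plates; endpoints linearly interpolated, else capped at highest concentration. At the GI50, growth is halved. TGI marks complete inhibition of growth.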

Regarding `CN(C)c1n/c(=N/c2ncn[nH]2)ss1`, the TGI in experiment [1], in experiment [2], in experiment [3], in experiment [4], in experiment [5] and in [6] was > 100 µM each time. In addition, the TGI in experiment [7] is > 100 µM.
For `COc1ccc(C(=O)c2cc3c(N)c(C(=O)Nc4cccc(Cl)c4C)sc3nc2C)cc1`, the GI50 in experiment [8] was 0.109 µM; in experiment [1], 0.104 µM; in experiment [2] it was 0.0623 µM; in experiment [3], 0.419 µM; in experiment [4] it was 0.0917 µM; in [5] it was 0.136 µM. The GI50 in experiment [6] is 0.0679 µM; in experiment [7], 0.0715 µM; in [9], 0.105 µM. The TGI in [8] was 7.13 µM; in experiment [1], > 25 µM; in experiment [2] it was > 6.78 µM; in [3], > 25 µM; in [4], > 25 µM; in experiment [5], > 25 µM. The TGI in experiment [6] was 0.169 µM; in experiment [7], > 25 µM; in [9] it was > 25 µM.
As for `Cn1c2c(c3ccccc31)CCN(CCCCN1CCN(c3cccc(Cl)c3)CC1)C2=O`, the TGI was determined as 11.2 µM in experiment [8]; 24.6 µM in [1]; 25.6 µM in [2]; 49.9 µM in experiment [3]; 28 µM in experiment [4]; 70.2 µM in experiment [5]. Further, the TGI in [6] was found to be 26.5 µM; in experiment [7], 10.7 µM.
Consider `c1ccc(COCC2OC3c4ccccc4COC3C2OCc2ccccc2)cc1` (centres undefined), for which the TGI in experiment [8], in experiment [1], in [4], in experiment [5], in [6] and in experiment [7] was > 100 µM in each case.
Regarding `O=C1C2c3[nH]c4ccccc4c3[C@@H]3CCCCC3C2C(=O)N1c1ccccc1` (some centres undefined), the TGI is 33.6 µM in experiment [8]; 28 µM in experiment [1]; 62.9 µM in [3]; 31.9 µM in experiment [4]; > 100 µM in experiment [5]; 30 µM in experiment [7].
In the case of `O=C1C(Cl)=C(Nc2cccc(O)c2)C(=O)N1c1ccccc1Cl`, the GI50 is 37.2 µM in [10]; 30.3 µM in experiment [8]; 33.3 µM in [1]; 17.3 µM in experiment [2]; 13.6 µM in experiment [3]; 41.2 µM in [4]. Besides, the GI50 was 50 µM in [5], 21.5 µM in [7] and 30.9 µM in experiment [9]. The TGI in experiment [10] is > 100 µM; in [8], > 100 µM; in [1], > 100 µM; in experiment [2], 41.8 µM; in experiment [3] it was 60.6 µM; in experiment [4], > 100 µM. In addition, the TGI in experiment [5], in experiment [7] and in experiment [9] was > 100 µM each time.
Consider `Cc1cc(C)c(S(=O)(=O)ONC(=O)OC(C)(C)C)c(C)c1`, for which the TGI in experiment [8], in experiment [1], in experiment [2], in [3], in experiment [4] and in [5] was > 100 µM in each case. Further, the TGI in [6] and in experiment [7] was > 100 µM each time.
In the case of `COC(OC)[C@@H](C)[C@H](O)[C@](C)(O)C1OC(C)(C)OC(C(C)C=C(C)C)C1C` (some centres undefined), the TGI in [8], in [1], in experiment [2], in experiment [3], in [4] and in experiment [5] was > 100 µM each time. The TGI in experiment [6] and in experiment [7] was > 100 µM each time.
Turning to `CCOC(=O)NC(=O)c1cn(CCN2CCN(C(=O)CCCCCCCCCCNc3ncnc4nc[nH]c34)CC2)c(=O)[nH]c1=O`, the TGI in experiment [8], in experiment [1], in experiment [3], in [4], in experiment [5] and in experiment [6] was > 100 µM throughout. In experiment [7], the TGI is > 100 µM.
For the compound `CNCCCNc1nc2ccccc2c2c(=O)c3cc(Cl)ccc3sc12`, the GI50 was 1.76 µM in [10]; 1.88 µM in [8]; 1.5 µM in experiment [3]; 1.61 µM in [4]; 1.55 µM in experiment [5]; 1.68 µM in experiment [6]. Moreover, the GI50 in experiment [9] was 1.74 µM. Also, the TGI in experiment [10] worked out at 3.19 µM; in experiment [8], 3.54 µM; in experiment [3], 3.01 µM; in experiment [4] it was 3.06 µM; in experiment [5] it was 3.04 µM; in experiment [6], 3.12 µM. In addition, the TGI in experiment [9] worked out at 3.14 µM.
Consider `CCC(C(=O)[O-])C(=O)[O-].CCC(C(=O)[O-])C(=O)[O-].N.N.NCCCCCCN.[Pt+4].[Pt+4]`, for which the GI50 in experiment [8] was 0.883 µM; in experiment [1], 8.8 µM; in [3] it was 11.2 µM; in experiment [4] it was 7.99 µM; in experiment [5], 10.8 µM; in experiment [6], 10.4 µM. Further, the GI50 in experiment [7] was 6.68 µM. The TGI in [8] is 1.66 µM; in experiment [1], 16.5 µM; in [3], 24 µM; in experiment [4], 18.7 µM; in experiment [5], 24.1 µM; in [6], 21.7 µM. In experiment [7], this compound registered a TGI of 13.1 µM.
In the case of `OC(c1ccccn1)C1CNc2ccccc21` (centres undefined), the TGI in experiment [8], in [1], in experiment [2], in experiment [3], in experiment [4] and in experiment [5] was > 100 µM in each case. Further, the TGI in experiment [6] and in experiment [7] was > 100 µM in each case.
In the case of `CCc1nc(N)nc(N)c1-c1ccc(NCCc2ccccc2)c([N+](=O)[O-])c1`, the TGI is > 73 µM in experiment [10]; 16.9 µM in [8]; 47.3 µM in experiment [1]; > 62.5 µM in [3]; > 53.9 µM in experiment [4]; 21.8 µM in [5]. Also, the figures for the TGI in experiment [6], in experiment [7] and in experiment [9] were 18 µM, 39.3 µM and > 53.8 µM, respectively.
With `Cc1ccc2[nH]c3c(ncc4[nH]c5ccccc5c43)c2c1`, the TGI was found to be 34.3 µM in experiment [8]; 28 µM in experiment [1]; 39.6 µM in experiment [2]; 32.4 µM in experiment [3]; 30.6 µM in [4]; 32.7 µM in experiment [5]. Besides, the TGI in experiment [6] came to 30.7 µM; in experiment [7] it was 35.8 µM.
Turning to `COc1cc(-c2cc(=O)c3cc(C)c(C)c(C(=O)O)c3o2)cc(OC)c1OC`, the TGI in [8], in experiment [1], in experiment [2], in experiment [3], in experiment [4] and in [5] was > 100 µM throughout. Also, the TGI in [6] and in experiment [7] was > 100 µM throughout.
Turning to `COC12CC(=O)C(C(C)=O)=C(O)C1(C)c1c(OC(C)=O)c(C)c(O)c(C(C)=O)c1O2` (centres undefined), the TGI in experiment [1], in experiment [3], in [4], in experiment [5], in experiment [6] and in experiment [7] was > 100 µM each time.
As for `CC1=C(c2cc(C(=O)Nc3cccc(C(F)(F)F)c3)ncn2)Sc2ccccc2N1`, the TGI in [8], in [1], in experiment [2], in experiment [3], in experiment [4] and in [5] was > 100 µM in each case. Besides, the TGI in [6] and in experiment [7] was > 100 µM each time.
For `O=C(CC(=O)C1CCOC1=O)C(=O)Nc1ccc(Cl)cc1Cl` (centres undefined), the TGI in experiment [8], in experiment [1], in [2], in experiment [3], in experiment [4] and in [5] was > 100 µM each time. Besides, the TGI in [6] and in experiment [7] was > 100 µM each time.
In the case of `O=C(NNC(=O)c1cc(/C=C/c2cccc([N+](=O)[O-])c2)[nH]c(=S)n1)Nc1ccc(Cl)cc1`, the TGI was 37.2 µM in experiment [8]; 30.2 µM in [1]; 81.8 µM in [2]; > 100 µM in experiment [3]; > 100 µM in [4]; > 100 µM in [5]. For the same compound, the TGI in [7] was > 100 µM.
As to `CC(=O)OCC1O[C@@H]([S-])C(OC(C)=O)[C@H](OC(C)=O)[C@@H]1OC(C)=O.[Au+].c1ccc(CN2[CH-]N(Cc3ccccc3)C(c3ccccc3)=C2c2ccccc2)cc1`, the GI50 in [10] was 1.66 µM; in experiment [8] it was 1.99 µM; in [1], 1.61 µM; in experiment [2], 1.58 µM; in [5] it was 3.81 µM; in [6] it was 1.85 µM. For the same compound, the GI50 in experiment [7] is 1.69 µM; in experiment [9] it was 1.89 µM. Further, the TGI in [10] amounted to 3.1 µM; in experiment [8] it was 3.75 µM; in [1] it was 3.09 µM; in experiment [2], 3.66 µM; in [5], 21.4 µM; in experiment [6] it was 3.56 µM. Moreover, the TGI in experiment [7] came out at 3.58 µM; in experiment [9] it was 3.54 µM.
Take `CCC[CH2][Sn]([CH2]CCC)([O]C(=O)C1CCC(=O)N1)[O]C(=O)C1CCC(=O)N1` (centres undefined): the GI50 in experiment [8] is 0.363 µM; in experiment [1], 0.164 µM; in experiment [2] it was 0.0263 µM; in experiment [4], 1.27 µM; in experiment [5], 2.01 µM; in experiment [6], 0.185 µM. Also, the GI50 in [7] is 0.2 µM. The TGI in experiment [8] stood at 1.16 µM; in experiment [1], 0.33 µM; in experiment [2] it was 0.11 µM; in experiment [4], 2.53 µM; in experiment [5], 3.64 µM; in experiment [6], 0.414 µM. For the same compound, the TGI in experiment [7] was found to be 0.456 µM.
As for `Cc1ccc(C)c(NC(=O)CCc2nc(=S)[nH][nH]2)c1`, the TGI in experiment [8], in experiment [1], in experiment [2], in [3], in experiment [4] and in [5] was > 100 µM in each case. The TGI in experiment [6] and in experiment [7] was > 100 µM in each case.
`O=C1/C(=C/c2ccccc2)CN(C(=O)OCc2ccccc2)C/C1=C\c1ccccc1`: the TGI was 34.1 µM in experiment [8]; 17.8 µM in experiment [1]; 18.5 µM in experiment [2]; 30.7 µM in experiment [3]; > 46.4 µM in experiment [4]; > 46.4 µM in experiment [5]. Also, the TGI is 30.9 µM in experiment [6], 16.7 µM in experiment [7] and > 100 µM in experiment [9]. The GI50 in experiment [4] was 5.47 µM; in [7], 5.89 µM.
As for `CC/C(C)=C1\OC(=O)C(C)C(O)C(Cc2cccnc2)NC(=O)C(NC(=O)c2ncccc2O)C(C)OC1=O` (centres undefined), the TGI in [10], in experiment [8], in [1], in [3], in experiment [4] and in experiment [5] was > 100 µM in each case. Further, the TGI in [6], in [7] and in [9] was > 100 µM in each case.
On to `CC(=O)OC1CC2C(C)(C)C(=O)C=CC2(C)C2CCC3(C)C(c4ccoc4)OC(=O)C4OC43C12C` (centres undefined), for which the TGI in [8] is 21.7 µM; in [1], 26.1 µM; in [2] it was 19.8 µM; in experiment [3], > 100 µM; in experiment [4], 16.1 µM; in experiment [5], 86.9 µM. Besides, the TGI in experiment [6] turned out to be 26.6 µM; in experiment [7], 28.1 µM; in [9], 11 µM.
With `CCC1CCc2nc3sc(C(=O)Nc4ccccc4C)c(N)c3cc2C1` (centres undefined), the GI50 in experiment [8] is 0.451 µM; in experiment [1], 0.648 µM; in [2] it was 0.775 µM; in [3] it was 0.706 µM; in experiment [4] it was 0.627 µM; in [5], 0.616 µM. The GI50 was 0.398 µM in [6] and 0.485 µM in experiment [9]. The TGI in [8], in experiment [1], in experiment [2], in experiment [3], in experiment [4] and in experiment [5] was > 100 µM throughout. Also, the TGI in [6] and in experiment [9] was > 100 µM throughout.

Source of the values: PubChem BioAssay (NCI).
